Experimental data taken from patent US10391015B2, “Apparatus and method for restoring voluntary control of locomotion in neuromotor impairments” (ECOLE POLYTECHNIQUE FEDERALE DE LAUSANNE (EPFL), priority 2012, dated 2019).

Assays:
[1] = system: left motor cortex; experiment: Inactivation of the motor cortex by muscimol microinjection in overground-trained SCI rats; format: in vivo, rat; conditions: overground-trained rats with T7/T10 staggered hemisections; intra-cortical microinjection into left motor cortex (800 nl, 4.5 mg/Kg); p<0.01; functionality of lumbosacral circuits uncompromised
Protocol: (§1) To ablate T8-T9 neurons, we infused NMDA (1% in dH2O) into 14 sites (depth 1 mm, total volume 3 μl) covering spinal levels T8-T9. Rats were tested 5 days post-lesion, and sacrificed on the following day. The ablation of neurons was verified post mortem on tissue sections stained with mouse anti-NeuN (1:500, Chemicon, USA) antibodies. To inactivate the motor cortex, we injected the GABA-agonist muscimol intra-cortically (800 nl, 4.5 mg/Kg). Five days prior to experiments, we stereotaxically implanted a catheter (OD: 0.61 mm, ID: 0.28 mm) into the left motor cortex at a depth of 1.5 mm. Proper catheter location was verified post mortem on tissue sections stained (Invitrogen, USA) for fluorescent Nissl visualization.
Contrary to primates, the rodent motor cortex is not essential to produce locomotion (G. Courtine et al., Can experiments in nonhuman primates expedite the translation of treatments for spinal cord injury in humans? Nature medicine 13, 561 (May, 2007)). […] First, we implanted stimulating epidural electrodes over the left motor cortex to verify that the reorganization of neuronal pathways re-established connectivity across the lesion. […] Second, we implanted a microwire array in the vicinity of CST neurons projecting to T8-T9 segments, and recorded neuronal modulations during voluntary locomotion in overground-trained rats (n=3). […]

[2] = system: T8-T9 neurons; experiment: Ablation of T8-T9 neurons by NMDA infusion in overground-trained SCI rats; format: in vivo, rat; conditions: overground-trained rats with T7/T10 staggered hemisections, NMDA 1% in dH2O into 14 sites, tested 5 days post-lesion, p<0.01, functionality of lumbosacral circuits uncompromised
Protocol: as §1
Anatomical examinations highlighted an extensive remodelling of supraspinal and intraspinal projections in rats that regained voluntary locomotion. We first conducted retrograde tract tracing from L1-L2 locomotor centers. We found a significant increase (p<0.01) in the number of labeled neurons in intermediate and ventral laminae of T8-T9 segments in both overground-trained and treadmill-trained rats compared to non-trained animals. Analysis of the activity-dependent marker cfos after continuous overground locomotion confirmed that the labeled neurons were active during walking. […]

SMILES | effect on voluntary hindlimb locomotion [1] | effect on regained voluntary locomotion [2]
NCc1cc(=O)[nH]o1 [Muscimol, muscimol] | immediately suppressed voluntary hindlimb locomotion | –
CN[C@H](CC(=O)O)C(=O)O [NMDA, N-methyl-D-aspartic acid] | – | abolished the regained voluntary locomotion
